21 compounds from PubChem BioAssay (NCI) can be followed below.

Among the test systems are OVCAR-3 ovarian; A498 renal; T-47D breast; COLO 205 colon; DU-145 prostate; KM12 colon; NCI-H226 lung; U251 CNS; HCC-2998 colon; NCI-H522 lung.
Common to all, as to test: NCI anticancer screen, dose series, 48 h

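Growth conditions: 96-well plates. Treatment: test compound, 48 hours, 5 concentrations. Analysis: linear interpolation between bracketing concentrations; unreached endpoints set to highest concentration. At the TGI there is no net growth.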 Where a SMILES comes first, the peptide text is derived from it. [ ]: non-standard residue; d: D form. The star is where a group is joined. Cbz = O=C(OCc1ccccc1)*; Boc = CC(C)(C)OC(=O)*; Aib = CC(C)(N)C(=O)O; OBn = c1ccc(CO*)cc1; OtBu = CC(C)(C)O*; βAla = NCCC(=O)O Some results are limits rather than exact numbers.

With `O=C(c1ccco1)N(C(=S)OCc1ccccn1)c1ccccc1`, the TGI with OVCAR-3 ovarian, with A498 renal, in the experiment on T-47D breast, in the experiment with COLO 205 colon, with DU-145 prostate and in the experiment on KM12 colon was over 100 µM each time. The TGI in the experiment with NCI-H226 lung and in the experiment with U251 CNS was over 100 µM each time.
For the compound `NC(CCCCNC(=O)OCc1ccccc1)C(=O)NC(CCCCNC(=O)OCc1ccccc1)C(=O)ON1C(=O)CCC1=O` (centres undefined), the TGI in the experiment with A498 renal, in the experiment with T-47D breast, with COLO 205 colon, with KM12 colon, in the experiment on NCI-H226 lung and in the experiment on U251 CNS was over 100 µM in each case. In addition, in the experiment with HCC-2998 colon, the TGI is over 100 µM.
Regarding `OC1OC(c2ccco2)C(F)(F)C(F)(F)C1(F)F` (centres undefined), the TGI in the experiment with OVCAR-3 ovarian, in the experiment on A498 renal, in the experiment with T-47D breast, in the experiment on COLO 205 colon, in the experiment on DU-145 prostate and in the experiment with KM12 colon was over 100 µM in each case. For the same compound, the TGI with NCI-H226 lung and with U251 CNS was over 100 µM in each case.
As to `CSc1ncc2c(n1)-c1ccccc1OC2N1CCCC1` (centres undefined), the TGI in the experiment on OVCAR-3 ovarian is over 100 µM; with A498 renal, 26.1 µM; in the experiment with T-47D breast, over 100 µM; with NCI-H522 lung, over 100 µM; with COLO 205 colon it was over 100 µM; with DU-145 prostate it was over 100 µM. Also, the TGI in the experiment on KM12 colon, in the experiment with NCI-H226 lung and in the experiment on U251 CNS was over 100 µM throughout.
For the compound `O=C1NC(N/N=C\c2ccccc2)=N/C1=C/c1ccc(Cl)cc1`, the TGI in the experiment with OVCAR-3 ovarian is 39.7 µM; in the experiment on T-47D breast it was over 100 µM; in the experiment with NCI-H522 lung, 44.4 µM; in the experiment on COLO 205 colon, over 100 µM; in the experiment on DU-145 prostate, over 100 µM; in the experiment on KM12 colon, 95.5 µM. Besides, the TGI was 43.3 µM in the experiment on NCI-H226 lung, 76.9 µM in the experiment with U251 CNS and 36.9 µM with HCC-2998 colon.
As to `Cc1ccc(O)c(C2=NNC(c3cccc(Br)c3)C2)c1` (centres undefined), the TGI with OVCAR-3 ovarian, in the experiment with T-47D breast, in the experiment on NCI-H522 lung, with COLO 205 colon, in the experiment on DU-145 prostate and in the experiment on KM12 colon was over 100 µM in each case. For the same compound, the TGI in the experiment with NCI-H226 lung, in the experiment with U251 CNS and in the experiment on HCC-2998 colon was over 100 µM in each case.
For `COc1cc2ccnc3c2c(c1O)N(C)C=C3`, the TGI is 17.8 µM in the experiment on OVCAR-3 ovarian; 23.4 µM with A498 renal; over 24.7 µM with T-47D breast; over 63.1 µM in the experiment on COLO 205 colon; over 62 µM in the experiment with DU-145 prostate; 40.2 µM with KM12 colon. Also, the results for the TGI in the experiment on NCI-H226 lung, in the experiment on U251 CNS and with HCC-2998 colon were 37.4 µM, over 100 µM and 48.2 µM, respectively.
As to `COC(OC)C(O)C1OC=CC1n1cnc2c(N)ncnc21` (centres undefined), the TGI in the experiment on OVCAR-3 ovarian, in the experiment on A498 renal, with T-47D breast, with COLO 205 colon, in the experiment on DU-145 prostate and in the experiment with KM12 colon was over 100 µM each time. Also, the TGI in the experiment with NCI-H226 lung, in the experiment on U251 CNS and in the experiment on HCC-2998 colon was over 100 µM each time.
With `CSC1SCC2C(=O)N(C)C3(CC3C)C(=O)OCC(NC(=O)c3nc4ccccc4cc3O)C(=O)NC(C)C(=O)N(C)C1C(=O)N(C)C1(CC1C)C(=O)OCC(NC(=O)c1nc3ccccc3cc1O)C(=O)NC(C)C(=O)N2C` (centres undefined), the TGI in the experiment on OVCAR-3 ovarian is under 0.0001 µM; in the experiment on A498 renal it was under 0.0001 µM; in the experiment with T-47D breast it was over 100 µM; in the experiment with COLO 205 colon, under 0.0001 µM; in the experiment with DU-145 prostate, over 100 µM; with KM12 colon, under 0.0001 µM. For the same compound, the TGI with NCI-H226 lung, with U251 CNS and in the experiment on HCC-2998 colon was under 0.0001 µM throughout.
For the compound `CC[N+](C)(CC)CCN1C(=O)c2ccccc2S1(=O)=O`, the TGI with OVCAR-3 ovarian, in the experiment on A498 renal, with T-47D breast, in the experiment on NCI-H522 lung, with COLO 205 colon and in the experiment with DU-145 prostate was over 100 µM throughout. The TGI in the experiment on KM12 colon, with NCI-H226 lung and in the experiment on U251 CNS was over 100 µM each time.
For `CCOC(=O)c1cn(-c2ccc(Cl)cc2)c(=O)n2c1nc1ccccc12`, the TGI in the experiment with OVCAR-3 ovarian, in the experiment on A498 renal, in the experiment with T-47D breast, in the experiment with COLO 205 colon, in the experiment with DU-145 prostate and with KM12 colon was over 100 µM each time. Moreover, the TGI with NCI-H226 lung, in the experiment with U251 CNS and in the experiment on HCC-2998 colon was over 100 µM each time.
As to `CN1C2CC(=O)CC1[C@@H]1OC(c3ccccc3)O[C@H]21` (some centres undefined), the TGI in the experiment on OVCAR-3 ovarian, in the experiment on T-47D breast, with NCI-H522 lung, in the experiment with COLO 205 colon, with DU-145 prostate and in the experiment with KM12 colon was over 100 µM throughout. The TGI in the experiment on NCI-H226 lung, in the experiment with U251 CNS and in the experiment with HCC-2998 colon was over 100 µM throughout.
With `COc1ccc(CNc2nc(NCc3ccc(OC)cc3)nc(N3CCOCC3)n2)cc1`, the TGI with OVCAR-3 ovarian was 6.81 µM; in the experiment on A498 renal, 93.8 µM; in the experiment with T-47D breast, over 100 µM; with NCI-H522 lung, over 100 µM; in the experiment with COLO 205 colon, over 100 µM; with DU-145 prostate it was over 100 µM. In addition, the TGI is 8.09 µM in the experiment with KM12 colon, over 100 µM in the experiment with NCI-H226 lung and over 100 µM with U251 CNS.
Turning to `COC(=O)C1(C(=O)OC)N=C(C)OC1C(C)C` (centres undefined), the TGI with OVCAR-3 ovarian, with A498 renal, in the experiment on T-47D breast, with COLO 205 colon, in the experiment with DU-145 prostate and in the experiment on KM12 colon was over 100 µM in each case. The TGI with NCI-H226 lung, with U251 CNS and in the experiment on HCC-2998 colon was over 100 µM throughout.
In the case of `CC(C)(C)OC(=O)N1C(OP(=O)(Oc2ccccc2)Oc2ccccc2)=COc2cccnc21`, the TGI in the experiment on OVCAR-3 ovarian was over 100 µM; with T-47D breast it was 94.2 µM; in the experiment with NCI-H522 lung it was over 100 µM; in the experiment on COLO 205 colon, over 100 µM; with DU-145 prostate it was over 100 µM; in the experiment on KM12 colon it was over 100 µM. Also, the TGI in the experiment on NCI-H226 lung, in the experiment on U251 CNS and with HCC-2998 colon was over 100 µM in each case.
Consider `O=C1[C@@H]2Cc3c([nH]c4ccccc34)C(C3CCCCC3)N2C(=O)[C@@H]2CCCN12` (some centres undefined), for which the TGI was 51.7 µM in the experiment on OVCAR-3 ovarian; over 100 µM with A498 renal; over 100 µM in the experiment with T-47D breast; 63.1 µM with NCI-H522 lung; 42.9 µM with COLO 205 colon; over 100 µM with DU-145 prostate. Further, the TGI with KM12 colon is 58.4 µM; with NCI-H226 lung, over 100 µM; in the experiment with U251 CNS it was over 100 µM.
Consider `CCCCCCCCCCCCCCCCNc1nc(=O)n(C2CC(O)C(CO)O2)cc1F` (centres undefined), for which the TGI was found to be 39.3 µM in the experiment with OVCAR-3 ovarian; 25.3 µM with T-47D breast; 20.7 µM in the experiment with NCI-H522 lung; 48.6 µM in the experiment on COLO 205 colon; 21.6 µM with DU-145 prostate; 34 µM with KM12 colon. For the same compound, the TGI in the experiment with NCI-H226 lung came out at 10.8 µM; with U251 CNS, 33.1 µM; in the experiment with HCC-2998 colon, 14.2 µM.
Take `CC(C)(C)OC(=O)CC(NC(=O)OC(C)(C)C)C(=O)NC(CCCCNC(=O)OCc1ccccc1)C(=O)NC(C)(C)C(=O)NCCC(=O)OCc1ccccc1` (centres undefined) (Boc-D(OtBu)K(Cbz)[Aib][βAla]-OBn; configuration not given here): the TGI with OVCAR-3 ovarian, in the experiment with A498 renal, in the experiment on T-47D breast, with NCI-H522 lung, in the experiment on COLO 205 colon and in the experiment on DU-145 prostate was over 100 µM throughout. In addition, the TGI in the experiment with KM12 colon, in the experiment on NCI-H226 lung and with U251 CNS was over 100 µM each time.
Consider `CCOP(=O)(OCC)C(Nc1ccc(F)cc1)c1cccc([N+](=O)[O-])c1` (centres undefined), for which the TGI in the experiment with OVCAR-3 ovarian, with A498 renal, with NCI-H522 lung, in the experiment with COLO 205 colon, in the experiment on DU-145 prostate and in the experiment on KM12 colon was over 100 µM throughout. Besides, the TGI with NCI-H226 lung, with U251 CNS and with HCC-2998 colon was over 100 µM in each case.
Consider `CC1(C)C2CC(c3ccncc3)ON2C(C)(C)N1O` (centres undefined), for which the TGI with OVCAR-3 ovarian, in the experiment on T-47D breast, in the experiment with COLO 205 colon, in the experiment with DU-145 prostate, in the experiment with KM12 colon and in the experiment with NCI-H226 lung was over 100 µM in each case. Also, the TGI in the experiment on U251 CNS and in the experiment with HCC-2998 colon was over 100 µM in each case.
Regarding `COC(=O)C(COC(=O)/C=C/c1ccc(OC(C)=O)c(OC(C)=O)c1)OC(=O)/C=C/c1ccc(OC(C)=O)c(OC(C)=O)c1` (centres undefined), the TGI with OVCAR-3 ovarian was found to be 29.9 µM; with A498 renal, 43.1 µM; in the experiment with NCI-H522 lung, 26.7 µM; with COLO 205 colon it was 30 µM; with DU-145 prostate it was 24.7 µM; in the experiment on KM12 colon, 30.8 µM. Further, the TGI in the experiment on NCI-H226 lung was determined as 90.5 µM; in the experiment with U251 CNS it was 20.4 µM; with HCC-2998 colon, 43.4 µM.
